Experiments:
Rattus norvegicus [1] = test: Toxicity in Rattus norvegicus Wistar (rat) assessed as Rmax at 40 mg/kg, ip measured after 60 min by ECG analysis (reference value: 0.07 +/- 0.004 mv); format: organism-based; parameters: dose 40 mg/kg, route intraperitoneal; conditions: in vivo, 1 h
Rattus norvegicus [2] = test: Toxicity in Rattus norvegicus Wistar (rat) assessed as Rmax at 40 mg/kg, ip measured after 45 min by ECG analysis (reference value: 0.08 +/- 0.008 mv); format: organism-based; parameters: dose 40 mg/kg, route intraperitoneal; conditions: in vivo, 0.75 h
Rattus norvegicus [3] = test: Toxicity in Rattus norvegicus Wistar (rat) assessed as Rmax at 40 mg/kg, ip measured after 30 min by ECG analysis (reference value: 0.08 +/- 0.008 mv); format: organism-based; parameters: dose 40 mg/kg, route intraperitoneal; conditions: in vivo, 0.5 h
Rattus norvegicus [4] = test: Toxicity in Rattus norvegicus Wistar (rat) assessed as heart rate at 40 mg/kg, ip measured after 60 min by ECG analysis (reference value: 307.62 +/- 0.053 bpm); format: organism-based; parameters: dose 40 mg/kg, route intraperitoneal; conditions: in vivo, 1 h
Rattus norvegicus [5] = test: Toxicity in Rattus norvegicus Wistar (rat) assessed as heart rate at 40 mg/kg, ip measured after 45 min by ECG analysis (reference value: 307.62 +/- 0.023 bpm); format: organism-based; parameters: dose 40 mg/kg, route intraperitoneal; conditions: in vivo, 0.75 h
Rattus norvegicus [6] = test: Toxicity in Rattus norvegicus Wistar (rat) assessed as heart rate at 40 mg/kg, ip measured after 30 min by ECG analysis (reference value: 307.62 +/- 0.439 bpm); format: organism-based; parameters: dose 40 mg/kg, route intraperitoneal; conditions: in vivo, 0.5 h
Heart [7] = test: Inhibition of force of contraction in Hoplobatrachus tigerinus (frog) heart at log dose 3; format: functional
Heart [8] = test: Inhibition of force of contraction in Hoplobatrachus tigerinus (frog) heart at log dose 2.9; format: functional
Heart [9] = test: Inhibition of force of contraction in Hoplobatrachus tigerinus (frog) heart at log dose 2.6; format: functional
Heart [10] = test: Inhibition of force of contraction in Hoplobatrachus tigerinus (frog) heart at log dose 2.3; format: functional
Heart [11] = test: Inhibition of force of contraction in Hoplobatrachus tigerinus (frog) heart at log dose 2; format: functional
Rattus norvegicus [12] = test: Toxicity in Rattus norvegicus Wistar (rat) assessed as Rmax at 10 mg/kg, ip measured after 45 min by ECG analysis (reference value: 0.08 +/- 0.008 mv); format: organism-based; parameters: dose 10 mg/kg, route intraperitoneal; conditions: in vivo, 0.75 h
Rattus norvegicus [13] = test: Toxicity in Rattus norvegicus Wistar (rat) assessed as Rmax at 10 mg/kg, ip measured after 60 min by ECG analysis (reference value: 0.07 +/- 0.004 mv); format: organism-based; parameters: dose 10 mg/kg, route intraperitoneal; conditions: in vivo, 1 h
Rattus norvegicus [14] = test: Toxicity in Rattus norvegicus Wistar (rat) assessed as Rmax at 10 mg/kg, ip measured after 30 min by ECG analysis (reference value: 0.08 +/- 0.008 mv); format: organism-based; parameters: dose 10 mg/kg, route intraperitoneal; conditions: in vivo, 0.5 h
Rattus norvegicus [15] = test: Toxicity in Rattus norvegicus Wistar (rat) assessed as heart rate at 10 mg/kg, ip measured after 60 min by ECG analysis (reference value: 307.62 +/- 0.053 bpm); format: organism-based; parameters: dose 10 mg/kg, route intraperitoneal; conditions: in vivo, 1 h
Rattus norvegicus [16] = test: Toxicity in Rattus norvegicus Wistar (rat) assessed as heart rate at 10 mg/kg, ip measured after 45 min by ECG analysis (reference value: 307.62 +/- 0.023 bpm); format: organism-based; parameters: dose 10 mg/kg, route intraperitoneal; conditions: in vivo, 0.75 h
Rattus norvegicus [17] = test: Toxicity in Rattus norvegicus Wistar (rat) assessed as heart rate at 10 mg/kg, ip measured after 30 min by ECG analysis (reference value: 307.62 +/- 0.035 bpm); format: organism-based; parameters: dose 10 mg/kg, route intraperitoneal; conditions: in vivo, 0.5 h
Rattus norvegicus [18] = test: Toxicity in Rattus norvegicus Wistar (rat) assessed as Rmax at 50 mg/kg, ip measured after 60 min by ECG analysis (reference value: 0.07 +/- 0.004 mv); format: organism-based; parameters: dose 50 mg/kg, route intraperitoneal; conditions: in vivo, 1 h
Rattus norvegicus [19] = test: Toxicity in Rattus norvegicus Wistar (rat) assessed as Rmax at 50 mg/kg, ip measured after 45 min by ECG analysis (reference value: 0.08 +/- 0.008 mv); format: organism-based; parameters: dose 50 mg/kg, route intraperitoneal; conditions: in vivo, 0.75 h
Rattus norvegicus [20] = test: Toxicity in Rattus norvegicus Wistar (rat) assessed as Rmax at 50 mg/kg, ip measured after 30 min by ECG analysis (reference value: 0.08 +/- 0.008 mv); format: organism-based; parameters: dose 50 mg/kg, route intraperitoneal; conditions: in vivo, 0.5 h
Rattus norvegicus [21] = test: Toxicity in Rattus norvegicus Wistar (rat) assessed as heart rate at 50 mg/kg, ip measured after 60 min by ECG analysis (reference value: 307.62 +/- 0.053 bpm); format: organism-based; parameters: dose 50 mg/kg, route intraperitoneal; conditions: in vivo, 1 h
Rattus norvegicus [22] = test: Toxicity in Rattus norvegicus Wistar (rat) assessed as heart rate at 50 mg/kg, ip measured after 45 min by ECG analysis (reference value: 307.62 +/- 0.023 bpm); format: organism-based; parameters: dose 50 mg/kg, route intraperitoneal; conditions: in vivo, 0.75 h
Rattus norvegicus [23] = test: Toxicity in Rattus norvegicus Wistar (rat) assessed as heart rate at 50 mg/kg, ip measured after 30 min by ECG analysis (reference value: 307.62 +/- 0.439 bpm); format: organism-based; parameters: dose 50 mg/kg, route intraperitoneal; conditions: in vivo, 0.5 h
Rattus norvegicus [24] = test: Toxicity in Rattus norvegicus Wistar (rat) assessed as Rmax at 30 mg/kg, ip measured after 60 min by ECG analysis (reference value: 0.07 +/- 0.004 mv); format: organism-based; parameters: dose 30 mg/kg, route intraperitoneal; conditions: in vivo, 1 h
Rattus norvegicus [25] = test: Toxicity in Rattus norvegicus Wistar (rat) assessed as Rmax at 30 mg/kg, ip measured after 45 min by ECG analysis (reference value: 0.08 +/- 0.008 mv); format: organism-based; parameters: dose 30 mg/kg, route intraperitoneal; conditions: in vivo, 0.75 h
Rattus norvegicus [26] = test: Toxicity in Rattus norvegicus Wistar (rat) assessed as Rmax at 30 mg/kg, ip measured after 30 min by ECG analysis (reference value: 0.08 +/- 0.008 mv); format: organism-based; parameters: dose 30 mg/kg, route intraperitoneal; conditions: in vivo, 0.5 h
Rattus norvegicus [27] = test: Toxicity in Rattus norvegicus Wistar (rat) assessed as heart rate at 30 mg/kg, ip measured after 60 min by ECG analysis (reference value: 307.62 +/- 0.053 bpm); format: organism-based; parameters: dose 30 mg/kg, route intraperitoneal; conditions: in vivo, 1 h
Rattus norvegicus [28] = test: Toxicity in Rattus norvegicus Wistar (rat) assessed as heart rate at 30 mg/kg, ip measured after 45 min by ECG analysis (reference value: 307.62 +/- 0.023 bpm); format: organism-based; parameters: dose 30 mg/kg, route intraperitoneal; conditions: in vivo, 0.75 h
Rattus norvegicus [29] = test: Toxicity in Rattus norvegicus Wistar (rat) assessed as heart rate at 30 mg/kg, ip measured after 30 min by ECG analysis (reference value: 307.62 +/- 0.439 bpm); format: organism-based; parameters: dose 30 mg/kg, route intraperitoneal; conditions: in vivo, 0.5 h

Row | SMILES | Activity (Rattus norvegicus [1]) [mV] | Activity (Rattus norvegicus [2]) [mV] | Activity (Rattus norvegicus [3]) [mV] | Activity (Rattus norvegicus [4]) [bpm] | Activity (Rattus norvegicus [5]) [bpm] | Activity (Rattus norvegicus [6]) [bpm] | inhibition (INH) (Heart [7]) [%] | inhibition (INH) (Heart [8]) [%] | inhibition (INH) (Heart [9]) [%] | inhibition (INH) (Heart [10]) [%] | inhibition (INH) (Heart [11]) [%] | further results
1 | CCOC(=O)C1=C(C)N(CC(O)COc2ccc(/C=N/C(=S)Nc3ccccc3OC)cc2)C(=S)NC1c1ccccc1[N+](=O)[O-] (stereo not given) | 0.13 | 0.05 | 0.1 | 266.08 | 266.08 | 266.08 | 31 | 20 | 20 | 38 | 25 | –
2 | CCOC(=O)C1=C(C)N(CC(O)COc2ccc(/C=N/C(=S)Nc3ccc(Cl)cc3)cc2)C(=S)NC1c1ccccc1[N+](=O)[O-] (stereo not given) | 0.09 | 0.02 | 0.08 | 315.25 | 324.05 | 324.05 | 50 | 18 | 18 | 16 | 23 | –
3 | CCOC(=O)C1=C(C)N(CC(O)COc2ccc(/C=N/C(=S)Nc3ccc(OC)cc3)cc2)C(=S)NC1c1ccccc1[N+](=O)[O-] (stereo not given) | 0.13 | 0.02 | 0.09 | 266.41 | 266.41 | 272.19 | – | 66 | 50 | 50 | 30 | –
4 | CCOC(=O)C1=C(C)N(CC(O)COc2ccc(/C=N/C(=S)Nc3ccccc3OC)cc2)C(=S)NC1c1cccc([N+](=O)[O-])c1 (stereo not given) | 0.19 | 0.03 | 0.08 | 215.7 | 214.17 | 226.62 | 36 | 22 | 23 | 10 | 32 | –
5 | CC(C)NCC(O)COc1cccc2ccccc12 (stereo not given) [PROPRANOLOL] | – | – | – | – | – | – | – | – | – | – | – | Activity (Rattus norvegicus [12]): 0.02 mV; Activity (Rattus norvegicus [13]): 0.13 mV; Activity (Rattus norvegicus [14]): 0.04 mV; Activity (Rattus norvegicus [15]): 333 bpm; Activity (Rattus norvegicus [16]): 333 bpm; Activity (Rattus norvegicus [17]): 400 bpm
6 | CCOC(=O)C1=C(C)N(CC(O)COc2ccc(/C=N/C(=S)Nc3ccc(OC)cc3)cc2)C(=S)NC1c1cccc([N+](=O)[O-])c1 (stereo not given) | 0.14 | 0.07 | 0.04 | 300.22 | 300.22 | 315.87 | – | 50 | 43 | 43 | 50 | –
7 | CCOC(=O)C1=C(C)N(CC(O)COc2ccc(/C=N/C(=S)Nc3ccc(C(=O)O)cc3)cc2)C(=S)NC1c1cccc([N+](=O)[O-])c1 (stereo not given) | – | – | – | – | – | – | – | 30 | 25 | 5 | 23 | Activity (Rattus norvegicus [18]): 0.12 mV; Activity (Rattus norvegicus [19]): 0.05 mV; Activity (Rattus norvegicus [20]): 0.03 mV; Activity (Rattus norvegicus [21]): 399.26 bpm; Activity (Rattus norvegicus [22]): 399.26 bpm; Activity (Rattus norvegicus [23]): 399.26 bpm
8 | CCOC(=O)C1=C(C)N(CC(O)COc2ccc(/C=N/C(=S)Nc3ccc(Cl)cc3)cc2)C(=S)NC1c1cccc([N+](=O)[O-])c1 (stereo not given) | 0.07 | 0.01 | 0.03 | 260.42 | 299.78 | 323.85 | – | 25 | 4 | 20 | 13 | –
9 | COC(=O)C1=C(C)NC(C)=C(C(=O)OC)C1c1ccccc1[N+](=O)[O-] [NIFEDIPINE] | – | – | – | – | – | – | – | – | – | – | – | Activity (Rattus norvegicus [24]): 0.15 mV; Activity (Rattus norvegicus [25]): 0.1 mV; Activity (Rattus norvegicus [26]): 0.04 mV; Activity (Rattus norvegicus [27]): 521.73 bpm; Activity (Rattus norvegicus [28]): 425.61 bpm; Activity (Rattus norvegicus [29]): 363.63 bpm

Source: ChEMBL document CHEMBL3046778, “Design, synthesis and pharmacological screening of hybrid molecules as antihypertensives” (Med Chem Res, 2011)
